These compounds were tested on Glo-Response ARE-luc2P HEK293 cell line (assay: ARE luciferase reporter cell-based assay). Conditions: Homo sapiens, HEK293, 24 h, average of results obtained.
`CCn1nnc2c(C)c(C(CC(=O)O)c3ccc(C)c(CN4C[C@@H]5CCCN5c5ccccc5S4(=O)=O)c3)ccc21` (mixture of isomers) [Example 147, (R/S)-3-(3-(((S)-5,5-Dioxido-7a,8,9,10-tetrahydrobenzo[f]pyrrolo[2,1-d][1,2,5]thiadiazepin-6(7H)-yl)methyl)-4-methylphenyl)-3-(1-ethyl-4-methyl-1H-benzo[d][1,2,3]triazol-5-yl)propanoic Acid] gave an EC50 of 0.019 µM.
Work on `CCn1nnc2c(C)c(C(CC(=O)O)c3ccc(C)c(CN4C[C@H]5CCCN5c5ccccc5S4(=O)=O)c3)ccc21` (mixture of isomers) [Example 152, (R/S)-3-(3-(((R)-5,5-Dioxido-7a,8,9,10-tetrahydrobenzo[f]pyrrolo[2,1-d][1,2,5]thiadiazepin-6(7H)-yl)methyl)-4-methylphenyl)-3-(1-ethyl-4-methyl-1H-benzo[d][1,2,3]triazol-5-yl)propanoic Acid] yielded an EC50 of 0.0065 µM.
`CCn1nnc2c(C)c(C(CC(=O)O)c3ccc(C)c(CN4C[C@H]5COCCN5c5ncccc5S4(=O)=O)c3)ccc21` (mixture of isomers) [Example 135, (R/S)-3-(3-(((*S)-5,5-Dioxido-7a,8,10,11-tetrahydro-[1,4]oxazino[3,4-d]pyrido[2,3-f][1,2,5]thiadiazepin-6(7H)-yl)methyl)-4-methylphenyl)-3-(1-ethyl-4-methyl-1H-benzo[d][1,2,3]triazol-5-yl)propanoic Acid] was tested, and the EC50 was 0.024 µM.
With `CCn1nnc2c(C)c(C(CC(=O)O)c3ccc(C)c(CN4C[C@@H]5COCCN5c5ncccc5S4(=O)=O)c3)ccc21` (mixture of isomers) [Example 138, (R/S)-3-(3-(((*R)-5,5-Dioxido-7a,8,10,11-tetrahydro-[1,4]oxazino[3,4-d]pyrido[2,3-f][1,2,5]thiadiazepin-6(7H)-yl)methyl)-4-methylphenyl)-3-(1-ethyl-4-methyl-1H-benzo[d][1,2,3]triazol-5-yl)propanoic Acid] the EC50 was 0.014 µM.
In the case of `CCn1nnc2c(C)c(C(CC(=O)O)c3ccc(C)c(CN4C[C@@H]5CCCCN5c5ncccc5S4(=O)=O)c3)ccc21` (mixture of isomers) [Example 141, (R/S)-3-(3-(((*S)-5,5-Dioxido-7,7a,8,9,10,11-hexahydro-6H-dipyrido[2,1-d:2′,3′-f][1,2,5]thiadiazepin-6-yl)methyl)-4-methylphenyl)-3-(1-ethyl-4-methyl-1H-benzo[d][1,2,3]triazol-5-yl)propanoic Acid], the EC50 is reported as 0.0039 µM.
Compound `CCn1nnc2c(C)c(C(CC(=O)O)c3ccc(C)c(CN4C[C@H]5CCCCN5c5ncccc5S4(=O)=O)c3)ccc21` (mixture of isomers) [Example 144, (R/S)-3-(3-(((*R)-5,5-Dioxido-7,7a,8,9,10,11-hexahydro-6H-dipyrido[2,1-d:2′,3′-f][1,2,5]thiadiazepin-6-yl)methyl)-4-methylphenyl)-3-(1-ethyl-4-methyl-1H-benzo[d][1,2,3]triazol-5-yl)propanoic Acid] has an EC50 of 0.0031 µM.
`CCn1nnc2c(C)c(C(CC(=O)O)c3ccc(C)c(CN4CC(C)(C)Oc5ncccc5S4(=O)=O)c3)ccc21` (racemic) [Example 150, (R/S)-3-[3-[(4,4-Dimethyl-1,1-dioxo-3H-pyrido[2,3-b][1,4,5]oxathiazepin-2-yl)methyl]-4-methyl-phenyl]-3-(1-ethyl-4-methyl-benzotriazol-5-yl)propanoic Acid] gave an EC50 of 0.056 µM.
`CCn1nnc2c(C)c(C(CC(=O)O)c3ccc(C)c(CN4CC(C)(C)Oc5ccccc5S4(=O)=O)c3)ccc21` (racemic) [Example 151, (R/S)-3-(3-((4,4-Dimethyl-1,1-dioxido-3,4-dihydro-2H-benzo[b][1,4,5]oxathiazepin-2-yl)methyl)-4-methylphenyl)-3-(1-ethyl-4-methyl-1H-benzo[d][1,2,3]triazol-5-yl)propanoic Acid] was tested, and the EC50 was 0.01 µM.
Compound `Cc1ccc([C@H](CC(=O)O)c2ccn3c(C(F)(F)F)nnc3c2C)cc1CN1CC2CCCCN2c2ncc(Cl)cc2S1(=O)=O` (mixture of isomers) [Example 191, (3*S)-3-(3-((3-Chloro-5,5-dioxido-7,7a,8,9,10,11-hexahydro-6H-dipyrido[2,1-d:2′,3′-f][1,2,5]thiadiazepin-6-yl)methyl)-4-methylphenyl)-3-(8-methyl-3-(trifluoromethyl)-[1,2,4]triazolo[4,3-a]pyridin-7-yl)propanoic Acid] has an EC50 of 0.0019 µM.
For `Cc1ccc(C(CC(=O)O)c2ccc3c(nnn3C3CC3)c2C)cc1CN1CC2(CC2)N(C)c2ncccc2S1(=O)=O` (racemic) [Example 224, (R/S)-3-(1-Cyclopropyl-4-methyl-1H-benzo[d][1,2,3]triazol-5-yl)-3-(4-methyl-3-((5′-methyl-1′,1′-dioxido-5′H-spiro[cyclopropane-1,4′-pyrido[2,3-f][1,2,5]thiadiazepin]-2′(3′H)-yl)methyl)phenyl)propanoic Acid], the EC50 was 0.02 µM.
`CCn1nnc2c(C)c(C(CC(=O)O)c3ccc(C)c(CN4CC5(COC5)Oc5ccccc5S4(=O)=O)n3)ccc21` (racemic) [Example 237, (R 5)-3-(6-((1,1-Dioxidospiro[benzo[b][1,4,5]oxathiazepine-4,3′-oxetan]-2(3H)-yl)methyl)-5-methylpyridin-2-yl)-3-(1-ethyl-4-methyl-1H-benzo[d][1,2,3]triazol-5-yl)propanoic Acid] gave an EC50 of 0.019 µM.
In the case of `Cc1cnc2c(c1)S(=O)(=O)N(Cc1cc(C(c3ccn4c(C(F)F)nnc4c3C)C(C)(C)C(=O)O)ccc1C)CC1(CC1)O2` (racemic) [Example 559, (R/S)-3-(3-(Difluoromethyl)-8-methyl-[1,2,4]triazolo[4,3-a]pyridin-7-yl)-2,2-dimethyl-3-(4-methyl-3-((8′-methyl-1′,1′-dioxidospiro[cyclopropane-1,4′-pyrido[2,3-b][1,4,5]oxathiazepin]-2′(3′H)-yl)methyl)phenyl)propanoic Acid], the EC50 is reported as 0.00469 µM.
`Cc1ccc(C(c2ccn3c(C(F)F)nnc3c2C)C(C)(C)C(=O)O)cc1CN1CC2(CC2)Oc2ncccc2S1(=O)=O` (racemic) [Example 566, (R/S)-3-(3-(Difluoromethyl)-8-methyl-[1,2,4]triazolo[4,3-a]pyridin-7-yl)-3-(3-((1′,1′-dioxidospiro[cyclopropane-1,4′-pyrido[2,3-b][1,4,5]oxathiazepin]-2′(3′H)-yl)methyl)-4-methylphenyl)-2,2-dimethylpropanoic Acid] gave an EC50 of 0.00681 µM.
With `Cc1ncc(C(c2ccn3c(C(F)(F)F)nnc3c2C)C(C)(C)C(=O)O)cc1CN1CC2(CCOCC2)Oc2ncccc2S1(=O)=O` (racemic) [Example 569, (R/S)-3-(5-((1′,1′-Dioxido-2,3,5,6-tetrahydrospiro[pyran-4,4′-pyrido[2,3-b][1,4,5]oxathiazepin]-2′(3′H)-yl)methyl)-6-methylpyridin-3-yl)-2,2-dimethyl-3-(8-methyl-3-(trifluoromethyl)-[1,2,4]triazolo[4,3-a]pyridin-7-yl)propanoic Acid] the EC50 was 1.37 µM.
`Cc1cnc2c(c1)S(=O)(=O)N(Cc1cc(C(c3ccn4c(C(F)(F)F)nnc4c3C)C(C)(C)C(=O)O)cnc1C)CC1(CC1)O2` (racemic) [Example 572] was tested, and the EC50 was 0.392 µM.
`Cc1ccc([C@H](CC(=O)O)c2ccc3c(nnn3CC3CC3)c2C)cc1CN1C[C@]2(C)CCCN2c2ncccc2S1(=O)=O` (relative stereo) [Example 12, (*S)-3-(1-(Cyclopropylmethyl)-4-methyl-1H-benzo[d][1,2,3]triazol-5-yl)-3-(4-methyl-3-(((*S)-7a-methyl-5,5-dioxido-7a,8,9,10-tetrahydropyrido[2,3-f]pyrrolo[2,1-d][1,2,5]thiadiazepin-6(7H)-yl)methyl)phenyl)propanoic Acid] gave an EC50 of 0.0027 µM.
In the case of `Cc1ccc([C@H](CC(=O)O)c2ccn3c(C(F)F)nnc3c2C)cc1CN1C[C@@H]2CCCCN2c2ncc(C#N)cc2S1(=O)=O` (relative stereo) [Example 31, (*S)-3-(3-(((*S)-3-Cyano-5,5-dioxido-7,7a,8,9,10,11-hexahydro-6H-dipyrido[2,1-d:2′,3′-f][1,2,5]thiadiazepin-6-yl)methyl)-4-methylphenyl)-3-(3-(difluoromethyl)-8-methyl-[1,2,4]triazolo[4,3-a]pyridin-7-yl)propanoic Acid], the EC50 is reported as 0.0099 µM.
Work on `Cc1ccc([C@H](CC(=O)O)c2ccn3c(C(F)F)nnc3c2C)cc1CN1C[C@H]2CCCCN2c2ncc(C#N)cc2S1(=O)=O` (relative stereo) [Example 32, (*S)-3-(3-(((*R)-3-Cyano-5,5-dioxido-7,7a,8,9,10,11-hexahydro-6H-dipyrido[2,1-d:2′,3′-f][1,2,5]thiadiazepin-6-yl)methyl)-4-methylphenyl)-3-(3-(difluoromethyl)-8-methyl-[1,2,4]triazolo[4,3-a]pyridin-7-yl)propanoic Acid] yielded an EC50 of 0.0136 µM.
`Cc1ccc([C@H](c2ccn3c(C(F)(F)F)nnc3c2C)C(C)C(=O)O)cc1CN1C[C@@H]2CCCCN2c2ncccc2S1(=O)=O` (relative stereo) [Example 130, (3*R)-3-(3-(((*S)-5,5-Dioxido-7,7a,8,9,10,11-hexahydro-6H-dipyrido[2,1-d:2′,3′-f][1,2,5]thiadiazepin-6-yl)methyl)-4-methylphenyl)-2-methyl-3-(8-methyl-3-(trifluoromethyl)-[1,2,4]triazolo[4,3-a]pyridine-7-yl)propanoic Acid] gave an EC50 of 0.0548 µM.
Work on `Cc1ccc([C@@H](c2ccn3c(C(F)(F)F)nnc3c2C)C(C)C(=O)O)cc1CN1C[C@@H]2CCCCN2c2ncccc2S1(=O)=O` (relative stereo) [Example 131, (3*S)-3-(3-(((*S)-5,5-Dioxido-7,7a,8,9,10,11-hexahydro-6H-dipyrido[2,1-d:2′,3′-f][1,2,5]thiadiazepin-6-yl)methyl)-4-methylphenyl)-2-methyl-3-(8-methyl-3-(trifluoromethyl)-[1,2,4]triazolo[4,3-a]pyridine-7-yl)propanoic Acid] yielded an EC50 of 0.0016 µM.
`CCn1nnc2c(C)c([C@@H](CC(=O)O)c3ccc(C)c(CN4C[C@@H]5CCCN5c5ccccc5S4(=O)=O)c3)ccc21` (relative stereo) [Example 148, (*S)-3-[3-[(5,5-Dioxo-7a,8,9,10-tetrahydro-7H-pyrrolo[2,1-d][1,2,5]benzothiadiazepin-6-yl)methyl]-4-methyl-phenyl]-3-(1-ethyl-4-methyl-benzotriazol-5-yl)propanoic Acid] gave an EC50 of 0.015 µM.

Source: patent US10947252B2, “Inhibitors of KEAP1-Nrf2 protein-protein interaction” (Janssen Pharmaceutica NV, priority 2018, dated 2021)
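Further: luciferase signal tracks Nrf2 activation of the ARE once compounds disrupt KEAP1-Nrf2 binding, read with One-Glo reagent, DMSO serving as low control.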
